Measured values reported in US4637999A, “Substituted cephalosporins as anti-inflammatory and antidegenerative agents” (Merck & Co., Inc., priority 1983, dated 1987).
pIC50: −log10 of the molar value.

What follows are compounds tested against T1, Human Polymorphonuclear Leukocyte Elastase (Homo sapiens, UniProt P08246) (assay: biochemical). Settings: not given.
T1 sequence (P08246 30-267): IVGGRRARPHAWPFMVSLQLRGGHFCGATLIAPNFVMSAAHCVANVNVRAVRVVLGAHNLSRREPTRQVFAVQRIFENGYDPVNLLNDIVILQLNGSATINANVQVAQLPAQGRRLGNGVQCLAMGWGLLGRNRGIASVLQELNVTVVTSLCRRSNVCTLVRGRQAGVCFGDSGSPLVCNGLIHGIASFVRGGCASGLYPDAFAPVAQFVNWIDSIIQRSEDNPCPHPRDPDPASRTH
`COC(=O)C1=C(COC(C)=O)CSC2C(OC(=O)Cc3ccccc3)C(=O)N12` (centres unmarked) [R1=OCOCH2 .phi., B=OCH3] was tested, and the pIC50 was 5.01. For `CC(=O)OCC1=C(C(=O)OC(C)(C)C)N2C(=O)C(OC(=O)Cc3ccccc3)C2SC1` (centres unmarked) [R1=OCOCH2 .phi., B=OtBu], the pIC50 was 5.17.

Same assay, conditions: 50% inhibition of enzyme activity 2 minutes after zero time; crude PMN extract, 0.2 mM Boc-AAPAN, pH 7.5, 410 mμ; read-out: ED50 (the source's name) (converted)
`COC(=O)CCCOC(=O)C1=C(COC(C)=O)CSC2C(OC)C(=O)N12` (centres unmarked) [R1=OCH3, B=O(CH2)3 COOCH3] showed an IC50 of 1.29 µM. Compound `COC(=O)c1ccc(COC(=O)C2=C(COC(C)=O)CSC3C(OC)C(=O)N23)cc1` (centres unmarked) [R1=OCH3, B=OCH2 .phi.(p-COOCH3)] has an IC50 of 0.689 µM. Work on `COC1C(=O)N2C(C(=O)OCC=C(C)C)=C(COC(C)=O)CSC12` (centres unmarked) [R1=OCH3, B=OCH2 CHC(CH3)2] yielded an IC50 of 2.81 µM. For `CCOC(=O)COC(=O)C1=C(COC(C)=O)CSC2C(OC)C(=O)N12` (stereo not drawn) [R1=OCH3, B=OCH2 COOC2 H5, Ethoxycarbonylmethyl 3-acetyloxymethyl-7α-methoxy-8-oxo-5-thia-1-azabicyclo[4.2.0]oct-2-ene-2-carboxylate], the IC50 was 1.07 µM. Compound `COC(=O)C1=C(COC(C)=O)CSC2C(OC)C(=O)N12` (centres unmarked) [R1=OCH3, B=OCH3] has an IC50 of 8.3 µM. `CO[C@H]1C(=O)N2C(C(=O)OC(C)(C)C)=C(COC(C)=O)CS[C@H]12` [R1=OCH3, B=OtBu, t-Butyl 3-acetyloxymethyl-7α-methoxy-8-oxo-5-thia-1-azabicyclo(4.2.0)oct-2-ene-2-carboxylate] was tested, and the IC50 was 10.2 µM. For `CC(=O)OCC1=C(C(=O)OCc2ccccc2)N2C(=O)C(OC=O)C2SC1` (centres unmarked) [R1=OCHO, B=OCH2 .phi.], the IC50 was 5.11 µM. Compound `COC(=O)C1=C(COC(C)=O)CSC2C(OC=O)C(=O)N12` (centres unmarked) [R1=OCHO, B=OCH3] has an IC50 of 9.51 µM. In the case of `COC(=O)C1=C(COC(C)=O)CSC2C(OC(=O)c3ccccc3)C(=O)N12` (centres unmarked) [R1=OCO.phi., B=OCH3], the IC50 was 12.8 µM.
